For experiment [1], the system named is Trichophyton rubrum. Briefly: fungicidal test on fungal strains found around pools. The format is cell-based. Conditions: in 24 heures; dissolved in water at a concentration below 50 ppm with 30 ppm Cu and 100 ppb Ag.
The subject of experiment [2] is Chrysosporium Keratinophilium. Described as above. The format is cell-based. The following applies: in 24 heures; dissolved in water at a concentration below 50 ppm with 30 ppm Cu and 100 ppb Ag.

Our source for the action fongicide values is patent EP0411111B1, “AMMONIUM COMPOUND, COMPOSITION CONTAINING IT AND DESINFECTION METHOD” (FABRICOM AIR CONDITIONING S.A., priority 1989, dated 1990).

`CCCCCCCCCCCCCCCC[N+](C)(C)CCCCCC[N+](C)(C)c1ccc(NC(=N)NC(=N)Nc2ccc([N+](C)(C)CCCCCC[N+](C)(C)CCCCCCCCCCCCCCCC)cc2)cc1` [exemple 30]: the action fongicide entry in experiment [1] and in experiment [2] was “action fongicide” each time.
